Read-outs that look alike come from different tables or passages of the source.
Assays:
[1] = cited from earlier work
Squamous Cell Carcinoma = conditions: propranolol 160 mg daily with curcumin and celebrex, five weeks; reduced to 40 mg daily
[2] = system: Stage IV Adenocarcinoma of Lung; test: Treatment of Patient X with Stage IV adenocarcinoma of lung, followed by repeat PET CT; format: in vivo, human
Experimental: Commenced RAS modulation: • Aspirin: 300mg once daily • Start Date: 20 Jun. 2015
2015 • + Cilazapril: 2.5 mg once daily • Start Date: 26 Nov. 2015
2015 • + Doxycycline: 100mg once daily • Start Date: 20 Feb. 2016

[3] = piperine included in the curcumin formulation; cited from earlier work
[4] = system: several tumoral cell lines; conditions: cited from earlier work

CC(C)NCC(O)COc1cccc2ccccc12 (racemic) [Propranolol, (RS)-1-(1-methylethylamino)-3-(1-naphthyloxy)propan-2-ol]
Uncommon side effects ([1]; Uncommon (0.1-0.9%)): Gastrointestinal disturbance, such as nausea, vomiting, diarrhoea | Adverse effects leading to dose reduction (Squamous Cell Carcinoma): feeling ‘weak in the legs’ and had two episodes of falls

CC(=O)Oc1ccccc1C(=O)O [Aspirin, acetylsalicylic acid]
Common side effects ([1]; in vivo): Increased bleeding tendencies, dyspepsia | Rare side effects ([1]; in vivo): Thrombocytopenia, agranulocytosis, aplastic anaemia, hypersensitivity reactions, angio-oedema, allergic oedema, anaphylactic reactions including shock | Uncommon side effects ([1]; in vivo): Urticaria, rhinitis, dyspnoea | Repeat PET CT ([2]; 28 Jul. 2015, Aspirin 300mg once daily from 20 Jun. 2015): static appearance with low levels of activity remaining at both the primary and left lung metastasis sites

Cc1ccc(-c2cc(C(F)(F)F)nn2-c2ccc(S(N)(=O)=O)cc2)cc1 [Celecoxib, 4-[5-(4-methylphenyl)-3-(trifluoromethyl)pyrazol-1-yl]benzenesulfonamide]
Diarrhoea, frequency ([1]; listed as common): 4-10% | Headache, frequency ([1]; listed as common): 10-15% | Hypertension, frequency ([1]; listed as common): 2-12% | Nausea, frequency ([1]; listed as common): 3-7% | Gastrointestinal haemorrhage, frequency ([1]; listed as serious): less than 0.1% | Gastrointestinal perforation, frequency ([1]; listed as serious): less than 0.1% | Thrombosis, frequency ([1]; listed as serious): 1.2%

CCOC(=O)[C@H](CCc1ccccc1)N[C@H]1CCCN2CCC[C@@H](C(=O)O)N2C1=O [Cilazapril, (4S,7S)-7-[[(2S)-1-Ethoxy-1-oxo-4-phenylbutan-2-yl]amino]-6-oxo-1,2,3,4,7,8,9,10-octahydropyridazino[1,2-a]diazepine-4-carboxylic acid]
Common side effects ([1]; in vivo): Fatigue, hypotension, dyspepsia, nausea and other gastrointestinal disturbances, headache, rash and coughing | Rare side effects ([1]; in vivo): Skin rashes including erythema multiforme and toxic epidermal necrolysis may occur. Photosenstivity, alopecia and other hypersensitivity reactions | Uncommon side effects ([1]; in vivo): Tachycardia, palpitations and chest pain

CCCCc1nc(Cl)c(CO)n1Cc1ccc(-c2ccccc2-c2nn[nH]n2)cc1 [Losartan]
Common side effects ([1]; in vivo): Cold or flu symptoms such as stuffy nose, sneezing, sore throat, fever, muscle cramps, pain in the legs or back, stomach pain, diarrhoea, headache, dizziness, tired feeling, sleep problems (insomnia)

CN(C)C(=N)N=C(N)N [Metformin, N,N-dimethylimidodicarbonimidic diamide]
Mild gastrointestinal symptoms (diarrhoea, nausea, vomiting, loss of appetite), frequency ([1]; especially during the initial treatment period): > 1/10 | Metallic taste, frequency ([1]; worded 'Common' within the Very Rare paragraph): 3%

C#Cc1cccc(Nc2ncnc3cc(OCCOC)c(OCCOC)cc23)c1 [Tarceva]
Repeat PET CT ([2]; 1 Apr. 2015, on Tarceva): new right para-aortic node with high avidity | Repeat PET CTs ([2]; 12 Jul. 2011 to 5 Nov. 2013, Tarceva 150mg once daily from 2 Jun. 2011): remission of the cancer

O=C(C=CC=Cc1ccc2c(c1)OCO2)N1CCCCC1 [piperine, 1-[5-(1,3-Benzodioxol-5-yl)-1-oxo-2,4-pentadienyl]piperidine]
Effect on bioavailability of Curcumin [3]: increases the bioavailability of Curcumin

[Pt(dmba)(aza-N1)(dmso)] complex 1
IC50 relative to cisplatin [4]: lower IC50 than cisplatin
